Earlier results, collected in patent US6663901B1, “Pellets having a core coated with an antifungal and a polymer” (Janssen Pharmaceutical N.V., priority 1998, dated 2003).

For `CCC(C)n1ncn(-c2ccc(N3CCN(c4ccc(OCC5COC(Cn6cncn6)(c6ccc(Cl)cc6Cl)O5)cc4)CC3)cc2)c1=O` (racemic) [itraconazole, (±)-cis-4-[4-[4-[4-[[2-(2,4-dichlorophenyl)-2-(1H-1,2,4-triazol-1-methyl)-1,3-dioxolan-4-yl]methoxy]phenyl]-1-piperazinyl]phenyl]-2,4-dihydro-2-(1-methylpropyl)-3H-1,2,4-triazol-3-one], the solubility in water is given as “only very sparingly soluble”.
